Measurements reported in patent US8124793B2, “Derivatives of ethylene methanedisulfonate as cancer chemotherapeutic agents” (priority 2007, dated 2012).

What was measured:
Assay type in all cases: cell-based
[1] = system: human cancer cells; experiment: NCI screen summary over the cancers tested (negative growth of human cancer cells); conditions: cancers with negative growth / cancers tested
Method: (§1) In the NCI screening process, each compound was tested and described by a minimum of 60 data points. The test data include, but are not limited to the type of cancer, the molar concentration used in the screen, and the percent growth of the cancer. In some cases, NMR and elemental analysis were used for structural assignment.
The derivatives in the tables are grouped using the same category as in the tables 1-6.

[2] = system: NCI-H226; experiment: NCI screen, growth of human tumor cells: Non-Small Cell Lung NCI-H226
Method: as §1

[3] = system: HOP-18; experiment: NCI screen, growth of human tumor cells: Non-Small Cell Lung HOP-18
Method: as §1

[4] = system: EKVX; experiment: NCI screen, growth of human tumor cells: Non-Small Cell Lung EKVX; conditions: EKVX
Method: as §1

[5] = system: RPMI-8226; experiment: NCI screen, growth of human tumor cells: Leukemia RPMI-8226; conditions: RPMI-8226 (Leukemia), 10^−4 molar
Method: as §1

[6] = system: UACC-62; experiment: NCI screen, growth of human tumor cells: Melanoma UACC-62; conditions: UACC-62 (Melanoma), 10^−4 molar
Method: as §1

[7] = system: CCRF-CEM; experiment: NCI screen, growth of human tumor cells: Leukemia CCRF-CEM; conditions: CCRF-CEM (Leukemia), 10^−4 molar
Method: as §1

[8] = system: CAKI-1; experiment: NCI screen, growth of human tumor cells: Renal Cancer CAKI-1; conditions: CAKI-1 (Renal Cancer), 10^−4 molar
Method: as §1

[9] = system: HOP-62; experiment: NCI screen, growth of human tumor cells: Non-Small Cell Lung HOP-62; conditions: HOP-62 (Non-Small Cell Lung), 10^−4 molar
Method: as §1

[10] = system: SR; experiment: NCI screen, growth of human tumor cells: Leukemia SR; conditions: SR (Leukemia), 10^−4 molar
Method: as §1

[11] = system: KM12; experiment: NCI screen, growth of human tumor cells: Colon Cancer KM12
Method: as §1

[12] = system: SK-MEL-2; experiment: NCI screen, growth of human tumor cells: Melanoma SK-MEL-2; conditions: SK-MEL-2 (Melanoma), 10^−4 molar
Method: as §1

[13] = system: SF-295; experiment: NCI screen, growth of human tumor cells: CNS Cancer SF-295
Method: as §1

## C[Si](C)(OCCS(=O)(=O)[O-])C(=C1S(=O)(=O)OCCOS1(=O)=O)c1cccc2ccccc12.[Na+] [MWC 95-8]
[1]; 10^−4 M conc.
  Percentage of cancers showing negative growth cancers tested: 10^−4 M conc. = 0/1 = 0%

## Cc1ccc(S(=O)(=O)NC(=O)C2S(=O)(=O)OCCOS2(=O)=O)cc1 [NSC 648303, ethylene(4-methylbenzenesulfonamidocarbonyl)methanedisulfonate]
[2]; NCI-H226, 10^−4 molar
  % Growth: 16%
[2]; NCI-H226, 10^−5 molar
  % Growth: 37%
[2]; NCI-H226, 10^−6 molar
  % Growth: 51%
[2]; NCI-H226, 10^−7 molar
  % Growth: 55%
[2]; NCI-H226, 10^−8 molar
  % Growth: 53%
[1]; 10^−4 M conc.
  Percentage of cancers showing negative growth cancers tested: 10^−4 M conc. = 0/3 = 0%
[3]; HOP-18, 10^−4 molar
  % Growth: 69%
[3]; HOP-18, 10^−5 molar
  % Growth: 43%
[3]; HOP-18, 10^−6 molar
  % Growth: 39%
[3]; HOP-18, 10^−7 molar
  % Growth: 33%
[3]; HOP-18, 10^−8 molar
  % Growth: 31%
[4]; 10^−4 molar
  % Growth: 59%
[4]; 10^−5 molar
  % Growth: 66%
[4]; 10^−6 molar
  % Growth: 69%
[4]; 10^−7 molar
  % Growth: 67%
[4]; 10^−8 molar
  % Growth: 57%

## O=S1(=O)OCCOS(=O)(=O)C1(Cl)Cl [NSC 648307]
[2]; NCI-H226 (Non-Small Cell Lung), 10^−4 molar
  percent of growth of human tumor cells: 23%
[5]
  percent of growth of human tumor cells: 21%
[1]; 10^−4 M conc.
  Percentage of cancers showing negative growth cancers tested: 10^−4 M conc. = 0/5 = 0%
[6]
  percent of growth of human tumor cells: 7%
[7]
  percent of growth of human tumor cells: 29%
[8]
  percent of growth of human tumor cells: 23%

## COC(=O)/C=C(\C(=O)OC)C1C(=O)Oc2c(C)c(=O)c3ccccc3n21 (centres unmarked) [NSC 670993]
[9]
  percent of growth of human tumor cells: −53%

## CCCCCCCCOCC1S(=O)(=O)OCCOS1(=O)=O [NSC 671535]
[1]; 10^−4 M conc.
  Percentage of cancers showing negative growth cancers tested: 10^−4 M conc. = 0/1 = 0%
[10]
  percent of growth of human tumor cells: 5%

## O=C1c2ccccc2C(=O)N1CC1S(=O)(=O)OCCOS1(=O)=O [NSC 671536]
[1]; 10^−4 M conc.
  Percentage of cancers showing negative growth cancers tested: 10^−4 M conc. = 0/2 = 0%
[11]; KM12, 10^−4 molar
  % Growth: 50%
[11]; KM12, 10^−5 molar
  % Growth: 42%
[11]; KM12, 10^−6 molar
  % Growth: 39%
[11]; KM12, 10^−7 molar
  % Growth: 59%
[11]; KM12, 10^−8 molar
  % Growth: 40%
[10]
  percent of growth of human tumor cells: 15%

## O=C(O)c1ccccc1C(=O)NCC1S(=O)(=O)OCCOS1(=O)=O [NSC 671537, ethylene (2-carboxy-benzoyl)-N-2-ethane-1,1-disulfonate]
[1]; 10^−4 M conc.
  Percentage of cancers showing negative growth cancers tested: 10^−4 M conc. = 0/1 = 0%
[11]; KM12, 10^−4 molar
  % Growth: 62%
[11]; KM12, 10^−5 molar
  % Growth: 54%
[11]; KM12, 10^−6 molar
  % Growth: 45%
[11]; KM12, 10^−7 molar
  % Growth: 61%
[11]; KM12, 10^−8 molar
  % Growth: 41%

## CN(C)C(=N)N=C(N)N.CS(C)=O.[Cl][Pt][Cl] [NSC 671543]
[12]
  percent of growth of human tumor cells: 30%

## O=C(c1ccc2ccccc2c1)C1(I)S(=O)(=O)OCCOS1(=O)=O [NSC 679046]
[13]; SF-295, 10^−4 molar
  % Growth: −52%
[13]; SF-295, 10^−5 molar
  % Growth: −58%
[13]; SF-295, 10^−6 molar
  % Growth: −65%
[13]; SF-295, 10^−7 molar
  % Growth: −56%
[13]; SF-295, 10^−8 molar
  % Growth: 51%
[1]; 10^−4 M conc.
  Percentage of cancers showing negative growth cancers tested: 100%
[1]; 10^−5 M conc.
  Percentage of cancers showing negative growth cancers tested: 100%
[1]; 10^−6 M conc.
  Percentage of cancers showing negative growth cancers tested: 100%
[1]; 10^−7 M conc.
  Percentage of cancers showing negative growth cancers tested: 100%
[1]; 10^−8 M conc.
  Percentage of cancers showing negative growth cancers tested: 0%
